Laboratory results taken from patent US10945516B2, “Device mounted on mask pack, mask pack and kit comprising the same” (BIOSENSOR LABORATORIES INC., priority 2016, dated 2021).

Tests used:
[1] = format: in vitro ADME; conditions: pig, 30 min, 0.5 mM
Procedure: In particular, first, frozen pig skin purchased from a slaughterhouse was left out at room temperature and thawed for 2 to 3 hours for preparation. Then, hair on the pig skin was removed, and the pig skin was stretched to have elasticity and fixed on a plate with pins. As an experimental group, the mask pack prepared according to an embodiment was applied to the pig skin for 30 minutes, and as a control group, a mask pack on which a RED battery was not mounted was applied to the pig skin for 30 minutes. 0.5 mM of Calcein (having a molecular weight of 622.55 g/mol, available from Sigma-Aldrich), which is a fluorescent agent, was used in a material-containing portion. Thereafter, the pig skin was prepared as samples and fixed for 24 hours by using a fixing solution of 4% paraformaldehyde (pH 7.4 at 4° C.). After the fixing, the samples were sufficiently washed with a PBS (pH 7.4) solution, and embedded with a Tissue-Tek O.C.T. compound (available from Sakura Finetek, USA) and rapidly cooled. The cooled samples were cut to a size of 7 um by using a cryomicrotome (Shandon Cryotome SME Cryostat, Shandon Scientific LTD, Cheshire, England). The cryomicrotomed tissue was washed with a PBS solution, mounted on a mounting solution, covered with a cover slip, and observed using a fluorescent microscope (Axio Observer Z1; Zeiss, Gottingen, Germany), and the results are shown in FIG. 11.

[2] = Degree of absorption of vitamin C by mouse skin from patch (HPLC); format: in vitro ADME; conditions: 12.5 mg per patch, 6 hours, hairless mouse back skin
Procedure: In particular, hairless mouse skin was used to measure a cumulative amount of vitamin C in skin of a mouse. As a control group, a preparation containing vitamin C in a general patch was used. As an experimental group, a preparation containing vitamin C in a patch using reverse electrodialysis was used. A cohesive hydrogel-type patch was prepared by using 3 w/v % Carbopol, and 0.5 mL of a vitamin C-containing cohesive hydrogel was loaded on the patch (an amount of vitamin C was 2.5 w/v %, and an amount of vitamin C loaded per patch was 12.5 mg). Back skin of a 5 week-old mouse (20 to 25 g) was taken, and the patch was mounted thereon. The patch was removed after being incubated for 6 hours, and the skin was carefully separated, quickly washed by using DDW and MeOH, and freeze-stored at −70° C. […] Amounts of vitamin C in the samples were measured by using high-performance liquid chromatography (HPLC) using a mixture of acetonitrile and 0.3 M of KH2PO4 (pH 4) at a ratio of 40:60 as a mobile phase, a Nucleosil NH2 (100 μm) column, a flow rate of 0.8 mL/min, an insertion volume of 20 μL, a UV wavelength of 264 nm, and a column temperature of 25° C., and the results are shown in FIG. 13.

Structure (SMILES) | amount of fluorescence that permeated into skin [1] [ng/cm^2] | amount permeated into skin [1] | increase of amount permeated into skin, reverse electrodialysis mask pack compared to passive diffusion [1] | locally remaining amounts of vitamin C of the epidermis layer and the dermis layer ([2]; control group general patch) | increase of locally remaining amounts of vitamin C of the epidermis layer and the dermis layer relative to control group ([2]; reverse electrodialysis patch vs general patch)
O=C(O)CN(CC(=O)O)Cc1cc2c(cc1O)Oc1cc(O)c(CN(CC(=O)O)CC(=O)O)cc1C21OC(=O)c2ccccc21 [Calcein] | 0.47 | about 0.05 ng/cm^2 | about 7 times |  | 
O=C1O[C@H]([C@@H](O)CO)C(O)=C1O [vitamin C] |  |  |  | small | about 3 times
